In patent US20130150346A1, “Use of FAAH Inhibitors for Treating Parkinson's Disease and Restless Legs Syndrome” (Ironwood Pharmaceutical, Inc., priority 2010, published 2013):

Tested on: MPTP-lesioned macaques
Assay: Motor activity (total activity, high activity time and counts) in MPTP-lesioned macaques treated with URB597 and L-DOPA
Format: in vivo, cynomolgus monkeys (Macaca fascicularis)
Source text: In addition, a quantitative assessment of marmoset activity was made using computer-operated passive infra-red sensors, essentially as described previously (Maccarrone et al., 2003, J. Neurochem. 85: 1018-1025; Visanji et al., 2009 J Pharm Exp Ther 328: 276-283). A single sensor containing a hemispherical lens (Guardall, Mississauga, ON, Canada) was mounted 1.5 m above the top of each the observation cage. The sensor was positioned so that motion was detected throughout the entirety of the cage below. The signal was fed via an RS-232 input to a computer. […] Activity counts were logged in 1-min epochs for the entire 6 h duration of the experiment and cumulated over the peak dose period of 2-4 h.
Assessment of marmoset activity was further assessed over time by quantifying the average activity of counts per minute of the same animals obtained prior to administration of MPTP (i.e., in the normal state). Activity over the same period of 2-4 h was calculated and used to identify minutes of high activity (a minute when activity was above the average per minute of the animal prior to MPTP). High activity counts (the total counts obtained in high activity minutes) were cumulated. High activity time (the number of high activity minutes) were also calculated.
Six cynomolgus monkeys (Macaca fascicularis) were used in each experiment. Animals were group housed with up to 3 animals per cage. The cage sizes exceeded UK, NIH, EU and CCAC minimum size recommendations, 2.4 m×3.0 m×1.0 m. The housing room was subject to a 12 hour light-dark cycle (lights on 7 a.m.), temperature 20-25° C. in a room containing only animals of the same sex. Fresh fruit, primate pellets and water was available ad libitum unless specifically described in other examples below.
This experiment examined the behavioral responses to five doses of URB597 (0.01, 0.03, 0.1, 0.3 or 1 mg/kg, i.v.) or vehicle in combination with L-DOPA in six parkinsonian macaques previously lesioned with MPTP.
The protocols for housing and acclimatization for the six parkinsonian MPTP-lesioned macaques were as those detailed in Example 6.
After acclimatization, the macaques in the MPTP cohort were rendered parkinsonian by once daily subcutaneous injection of 0.2 mg/kg MPTP, administered for 8-12 days, until the first appearance of parkinsonism symptoms. After this time, a parkinsonian syndrome evolved to a moderate to marked level, over approximately 30 days, and stabilized. Additional administrations of MPTP were given to some animals to titrate to similar degrees of parkinsonism in individuals across the group.
Sixty days after commencing MPTP administration, L-DOPA (20 mg/kg) was administered orally twice daily for six months. L-DOPA was administered as Madopar™ (L-DOPA in combination with benserazide). This treatment led to the development of motor fluctuations, including dyskinesia and wearing-off.
Dose-finding studies were performed to define a dose of L-DOPA for each individual macaque that provided the best anti-parkinsonian effect achievable and elicited hyperactivity that was stable and reproducible for that animal, on successive L-DOPA administrations.
L-DOPA was administered p.o. at a dose volume of 1 ml/kg, as Madopar™ (L-DOPA in combination with benserazide in the ratio 4:1). The vehicle for Madopar™ was water. On days when animals were not subject to behavioral observations they received maintenance oral L-DOPA, Madopar™ (30 mg/kg, p.o.) at approximately 9:00 a.m.
URB597 was obtained from Cayman Chemical (product #10046) and was formulated in 0.9% sterile saline containing 1% DMSO (v/v) (Sigma-Aldrich product #D2650) and 2% (v/v) Tween-80 (Sigma-Aldrich product #P4780) for dosing at a volume of 1 ml/kg.
For each URB597 concentration tested, requisite amounts of URB597 were weighed into sterile 50 ml sterile polypropylene tubes (Falcon™) (e.g., for the 1 mg/kg doses, approximately 35 mg was weighed). […]

SMILES: NC(=O)c1cccc(-c2cccc(OC(=O)NC3CCCCC3)c2)c1 [URB597]
- hyperactive behavior compared with treatment with L-DOPA alone (0.3 and 1.0 mg/ml (so in the source) URB597 i.v. and L-DOPA p.o.): significant reduction
- effect on L-DOPA-induced hyperactivity (URB597 0.1 mg/kg i.v. + L-DOPA p.o.): ineffective
- total activity versus L-DOPA treatment only (URB597 0.3 mg and 1.0 mg/kg i.v. + L-DOPA p.o., at 3 hrs, RM-ANOVA): significant effect
- effect on L-DOPA-induced hyperactivity (URB597 0.3 mg/kg i.v. + L-DOPA p.o.): maximally effective
- levels of L-DOPA-induced hyperactivity, dose dependence (URB597 0.01-1 mg/kg i.v. + L-DOPA p.o.): dose-dependently reduced
- hyperactivity over the L-DOPA treatments alone (URB597 0.3 and 1.0 mg/kg i.v. + L-DOPA p.o., at 3 hrs post-administration of L-DOPA): lowered hyperactivity
